# Source: patent US11377423B2, “Inhibitors of histone deacetylase” (The Broad Institute, Inc., priority 2012, dated 2022)
# What was measured:
# HDAC3 = HDAC3 (Homo sapiens (Human), UniProt O15379)
# HDAC1 = HDAC1 (Homo sapiens (Human), UniProt Q13547); test: Kinetics of the inhibition of HDAC1; conditions: HDAC1 residence
# HDAC1, sequence (Q13547 whole entry): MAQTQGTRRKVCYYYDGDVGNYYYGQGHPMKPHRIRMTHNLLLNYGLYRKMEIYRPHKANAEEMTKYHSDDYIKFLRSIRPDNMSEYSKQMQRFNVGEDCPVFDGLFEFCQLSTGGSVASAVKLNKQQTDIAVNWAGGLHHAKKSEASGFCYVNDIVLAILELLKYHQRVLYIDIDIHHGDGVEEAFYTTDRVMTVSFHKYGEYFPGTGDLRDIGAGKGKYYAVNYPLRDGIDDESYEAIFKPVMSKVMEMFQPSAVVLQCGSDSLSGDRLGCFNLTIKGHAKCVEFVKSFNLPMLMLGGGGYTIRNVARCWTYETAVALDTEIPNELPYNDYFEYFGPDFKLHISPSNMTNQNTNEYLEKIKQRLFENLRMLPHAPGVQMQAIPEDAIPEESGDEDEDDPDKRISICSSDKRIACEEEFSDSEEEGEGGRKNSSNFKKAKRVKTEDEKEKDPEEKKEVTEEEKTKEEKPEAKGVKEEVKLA
# Protocol: HDAC1 inactivation kinetic constant was determined by curve-fitting of the plot to a first-order rate equation.
# HDAC3, sequence (O15379 whole entry): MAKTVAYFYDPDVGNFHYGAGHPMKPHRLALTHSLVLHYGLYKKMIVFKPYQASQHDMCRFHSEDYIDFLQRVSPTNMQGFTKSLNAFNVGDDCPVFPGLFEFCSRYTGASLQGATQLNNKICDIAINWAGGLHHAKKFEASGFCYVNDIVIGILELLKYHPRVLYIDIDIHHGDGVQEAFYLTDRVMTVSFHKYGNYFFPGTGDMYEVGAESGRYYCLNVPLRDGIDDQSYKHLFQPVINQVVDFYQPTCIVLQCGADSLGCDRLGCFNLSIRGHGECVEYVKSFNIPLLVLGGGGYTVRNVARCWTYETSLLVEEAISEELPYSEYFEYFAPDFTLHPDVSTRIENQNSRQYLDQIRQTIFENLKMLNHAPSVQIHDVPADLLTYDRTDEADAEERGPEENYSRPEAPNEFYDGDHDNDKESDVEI
# HDAC3, sequence (Q9Y618 395-489 partner): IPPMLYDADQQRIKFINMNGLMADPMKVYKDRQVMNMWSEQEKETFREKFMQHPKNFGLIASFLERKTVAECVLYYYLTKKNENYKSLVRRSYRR
smiles,measurement,setting,value
"O=C(CCCCCCC(=O)Nc1ccccc1)NO [SAHA, N1-hydroxy-N8-phenyl-octanediamide, reference compound]",T1/2,HDAC3,<4 min
same,T1/2,HDAC1,<4 min
